Patent US7803801B2, “Aminopyridine compounds having Syk inhibitory activity” (Japan Tobacco, Inc., priority 2005, dated 2010)
pIC50: −log10 of the molar value. Where a name gives a salt, the structure may show the parent alone.

Key:
[1] = biological target: GST-Syk Full Protein (human) (Homo sapiens, UniProt P43405); assay: Syk kinase inhibition test (HTRF method); format: biochemical; settings: Tables 1-x, compounds A; read-out: sykHTRF ave IC50
Method in brief: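 Human GST-Syk full-length (6.4 nM) phosphorylated biotin-EDPDYEWPSA-NH2 (250 nM) with 100 μM ATP in HEPES pH 7.0/MgCl2 buffer, 2% DMSO, 30 min at room temperature. EDTA stop, then HTRF detection (streptavidin-XL665, Eu anti-phosphotyrosine) after 1 h; 665/620 ratio read.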

[2] = test system: cultured human mast cells; assay: Degranulation inhibition test using cultured human mast cells (IgE cross-linking, β-Hexosaminidase release); format: cell-based; settings: Mast cell; Tables 1-x, compounds A; cultured human mast cells; read-out: human degranulation ave. IC50
Method in brief: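 CD34+ cord-blood cells cultured ≥8 weeks with SCF/IL-6/IL-3; FcεRI primed 5 days with rhIL-4 (1 ng/mL) and hIgE (0.5 μg/mL). Compound (0.1% DMSO) preincubated 10 min at 37 °C, then anti-IgE (final 10 μg/mL) 30 min; released β-hexosaminidase read at 405 nm versus total lysate, IC50 (M).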

Row | pIC50 [1] | pIC50 [2] | Structure (SMILES)
1 | > 7.00 | 6.00 to 7.00 | Cc1ccnc(Nc2cccc(-c3cnc(N(C)C4CCC(C(=O)O)CC4)s3)n2)c1 (stereo not drawn) [Compound A-444, 4-(methyl-{5-[6-(4-methylpyridin-2-ylamino)pyridin-2-yl]thiazol-2-yl}amino)cyclohexanecarboxylic acid]
2 | > 7.00 | 6.00 to 7.00 | Cc1ccnc(Nc2cccc(-c3cnc(N(C)C4CCC(C(N)=O)CC4)s3)n2)c1 (stereo not drawn) [Compound A-446, 4-(N-methyl-N-{5-[6-(4-methylpyridin-2-ylamino)pyridin-2-yl]thiazol-2-yl}amino)cyclohexanecarboxamide]
3 | > 7.00 | < 6.00 | Cc1ccnc(Nc2cccc(-c3cnc(N4CCC(c5noc(=O)[nH]5)CC4)s3)n2)c1 [Compound A-450, 3-(1-{5-[6-(4-methylpyridin-2-ylamino)pyridin-2-yl]thiazol-2-yl}piperidin-4-yl)-4H-[1,2,4]oxadiazole-5-one]
4 | > 7.00 | 6.00 to 7.00 | COC(CN(C)c1ncc(-c2cccc(Nc3cc(C)ccn3)n2)s1)OC [Compound A-457, N-(2,2-dimethoxyethyl)-N-methyl-N-{5-[6-(4-methylpyridin-2-ylamino)pyridin-2-yl]thiazol-2-yl}amine]
5 | > 7.00 | 6.00 to 7.00 | CC(=O)N1CCC(N(C)c2ncc(-c3cccc(Nc4cc(C)ccn4)n3)s2)CC1 [Compound A-458, 1-[4-(N-methyl-N-{5-[6-(4-methylpyridin-2-ylamino)pyridin-2-yl]thiazol-2-yl}amino)piperidin-1-yl]ethanone]
6 | > 7.00 | 6.00 to 7.00 | Cc1ccnc(Nc2cccc(-c3cnc(N(C)C4CCN(C(=O)CO)CC4)s3)n2)c1 [Compound A-459, 2-hydroxy-1-[4-(N-methyl-N-{5-[6-(4-methylpyridin-2-ylamino)pyridin-2-yl]thiazol-2-yl}amino)piperidin-1-yl]ethanone]
7 | > 7.00 | 6.00 to 7.00 | CNC(=O)N1CCC(N(C)c2ncc(-c3cccc(Nc4cc(C)ccn4)n3)s2)CC1 [Compound A-460, N-methyl-4-(N′-methyl-N′-{5-[6-(4-methylpyridin-2-ylamino)pyridin-2-yl]thiazol-2-yl}amino)piperidine-1-carboxamide]
8 | > 7.00 | 6.00 to 7.00 | CC(=O)NCC(=O)N1CCC(N(C)c2ncc(-c3cccc(Nc4cc(C)ccn4)n3)s2)CC1 [Compound A-461, N-{2-[4-(N′-methyl-N′-{5-[6-(4-methylpyridin-2-ylamino)pyridin-2-yl]thiazol-2-yl}amino)piperidin-1-yl]-2-oxoethyl}acetamide]
9 | > 7.00 | < 6.00 | Cc1ccnc(Nc2cccc(-c3cnc(N4CCN(CC(=O)O)C(=O)C4)s3)n2)c1 [Compound A-464, (4-{5-[6-(4-methylpyridin-2-ylamino)pyridin-2-yl]thiazol-2-yl}-2-oxopiperazin-1-yl)acetic acid dihydrochloride]
10 | > 7.00 | 6.00 to 7.00 | Cc1ccnc(Nc2cccc(-c3cnc(N4CCN(CC(N)=O)C(=O)C4)s3)n2)c1 [Compound A-465, 2-(4-{5-[6-(4-methylpyridin-2-ylamino)pyridin-2-yl]thiazol-2-yl}-2-oxopiperazin-1-yl)acetamide]
11 | > 7.00 | < 6.00 | CNC(=O)CN1CCN(c2ncc(-c3cccc(Nc4cc(C)ccn4)n3)s2)CC1=O [Compound A-466, N-methyl-2-(4-{5-[6-(4-methylpyridin-2-ylamino)pyridin-2-yl]thiazol-2-yl}-2-oxopiperazin-1-yl)acetamide]
12 | > 7.00 | 6.00 to 7.00 | CNC(=O)CN(C)C(=O)C1CCN(c2ncc(-c3cccc(Nc4cc(C)ccn4)n3)s2)CC1 [Compound A-469, N-methyl-N-methylcarbamoylmethyl-1-{5-[6-(4-methylpyridin-2-ylamino)pyridin-2-yl]thiazol-2-yl}piperidine-4-carboxamide]
13 | > 7.00 | 6.00 to 7.00 | Cc1ccnc(Nc2cccc(-c3cnc(N(C)C4CCOCC4)s3)n2)c1 [Compound A-470, N-methyl-N-{5-[6-(4-methylpyridin-2-ylamino)pyridin-2-yl]thiazol-2-yl}-N-tetrahydropyran-4-ylamine]
14 | > 7.00 | 6.00 to 7.00 | Cc1ccnc(Nc2cccc(-c3cnc(N(C)Cc4ccc(O)cc4)s3)n2)c1 [Compound A-471, 4-[(N-methyl-N-{5-[6-(4-methylpyridin-2-ylamino)pyridin-2-yl]thiazol-2-yl}amino)methyl]phenol]
15 | > 7.00 | 6.00 to 7.00 | CC(=O)N[C@@H]1CCN(c2ncc(-c3cccc(Nc4cc(C)ccn4)n3)s2)C1 [Compound A-472, N—((R)-1-{5-[6-(4-methylpyridin-2-ylamino)pyridin-2-yl]thiazol-2-yl}pyrrolidin-3-yl)acetamide]
16 | > 7.00 | < 6.00 | Cc1ccnc(Nc2cccc(-c3cnc(N4CC[C@@H](N)C4)s3)n2)c1 [Compound A-473, (R)-1-{5-[6-(4-methylpyridin-2-ylamino)pyridin-2-yl]thiazol-2-yl}pyrrolidin-3-ylamine]
17 | > 7.00 | < 6.00 | Cc1ccnc(Nc2cccc(-c3cnc(N4CCCC(C(=O)O)C4)s3)n2)c1 (stereo not drawn) [Compound A-474, 1-{5-[6-(4-methylpyridin-2-ylamino)pyridin-2-yl]thiazol-2-yl}piperidine-3-carboxylic acid]
18 | > 7.00 | 6.00 to 7.00 | Cc1ccnc(Nc2cccc(-c3cnc(N4CC[C@@H](NC(=O)CO)C4)s3)n2)c1 [Compound A-475, 2-hydroxy-N—((R)-1-{5-[6-(4-methylpyridin-2-ylamino)pyridin-2-yl]thiazol-2-yl}pyrrolidin-3-yl)acetamide]
19 | > 7.00 | > 7.00 | Cc1ccnc(Nc2cccc(-c3cnc(N4CCCC(C(N)=O)C4)s3)n2)c1 (stereo not drawn) [Compound A-476, 1-{5-[6-(4-methylpyridin-2-ylamino)pyridin-2-yl]thiazol-2-yl}piperidine-3-carboxamide]
20 | > 7.00 | 6.00 to 7.00 | CNC(=O)C1CCCN(c2ncc(-c3cccc(Nc4cc(C)ccn4)n3)s2)C1 (stereo not drawn) [Compound A-477, N-methyl-1-{5-[6-(4-methylpyridin-2-ylamino)pyridin-2-yl]thiazol-2-yl}piperidine-3-carboxamide]
21 | > 7.00 | 6.00 to 7.00 | Cc1ccnc(Nc2cccc(-c3cnc(N4CCCC(C(=O)NCCO)C4)s3)n2)c1 (stereo not drawn) [Compound A-478, N-(2-hydroxyethyl)-1-{5-[6-(4-methylpyridin-2-ylamino)pyridin-2-yl]thiazol-2-yl}piperidine-3-carboxamide]
22 | > 7.00 | 6.00 to 7.00 | Cc1ccnc(Nc2cccc(-c3cnc(N4CC[C@@H](O)C4)s3)n2)c1 [Compound A-479, (R)-1-{5-[6-(4-methylpyridin-2-ylamino)pyridin-2-yl]thiazol-2-yl}pyrrolidin-3-ol]
23 | > 7.00 | 6.00 to 7.00 | Cc1ccnc(Nc2cccc(-c3cnc(N(C)[C@H]4CC[C@H](O)CC4)s3)n2)c1 [Compound A-480, trans-4-(N-methyl-N-{5-[6-(4-methylpyridin-2-ylamino)pyridin-2-yl]thiazol-2-yl}amino)cyclohexanol]

Row | Structure (SMILES) | pIC50 [1] | pIC50 [2]
24 | Cc1ccnc(Nc2cccc(-c3cnc(N(C)C4CCNCC4)s3)n2)c1 [Compound A-452, N-methyl-N-{5-[6-(4-methylpyridin-2-ylamino)pyridin-2-yl]thiazol-2-yl}-N-piperidin-4-ylamine] | > 7.00 | < 6.00
